# Measured values from publication PMC13053910, “Covalent Protein Inhibitors via Tyrosine and Tryptophan Conjugation with Cyclic Imine Mannich Electrophiles” (Angewandte Chemie (International Ed. in English), 2026).
# Experiments:
# CBX2 ChD = target: T1, CBX2 ChD (Homo sapiens, UniProt Q14781); assay: Labeling of CBX2 ChD (gel shift, MS); assay type: binding; details: gel shift or MS
# T1 construct: CBX chromodomain constructs (addgene plasmid #25158 (CBX2), and #62514 (CBX8, provided by Cheryl Arrowsmith)); 6His; host or cells: E. coli (BL21 CodonPlus RIL or Rosetta 2)
# T1 sequence (Q14781 12-70 limits assumed): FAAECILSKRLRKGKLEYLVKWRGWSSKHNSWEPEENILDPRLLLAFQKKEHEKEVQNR
# Method: Observed masses are shown (expected average mass for CBX8 ChD = 8792 Da). The observed mass difference (913 Da) agrees with the expected mass change of 913 Da. b) Labeled protein was detected by gel shift on 16.5% Tris‐Tricine SDS‐PAGE. […] Gel analysis was conducted on a 2.5% agarose gel in 10 mM sodium borate buffer. […] Assays were conducted using SW2_113 as an FP probe (Figure S20) at 100 nM. All proteins were used at 2 µM in PBS (pH 7), 0.02% Tween 20. Error bars represent SD. […] (μM); no other compound label is printed beside the IC50 lines
# We confirmed protein labeling through a gel shift assay on Tris‐Tricine SDS‐PAGE (Figure 5b). […] To validate labeling of the targeted tyrosine residue (Y39), this amino acid was mutated to phenylalanine. […] We additionally confirmed the labeling site as Y39 by trypsin digest and LC‐MS/MS analysis (Figure S9B).
# (§1) For P2, 10 µM purified CBX ChD was incubated with P2 (10 µM) in PBS buffer (pH 7) at 37 °C or R.T. for 1.5 hours, as well as 12 hours overnight. Samples were precipitated using MeOH and CHCl3 at the volume ratio of MeOH:CHCl3:sample=3:0.5:1, washed twice using cold MeOH, and air dried. Dried protein pellets were resuspended in aqueous buffer (0.1% formic acid, 300 mM ammonium acetate), and protein labeling were characterized and quantitated by ESI LC-MS.
# CBX8 ChD = target: T2, CBX8 ChD (Homo sapiens, UniProt Q9HC52); assay: Covalent conjugation to CBX8 ChD, UV integration on LC/MS; assay type: binding
# T2 construct: CBX chromodomain constructs (addgene plasmid #25158 (CBX2), and #62514 (CBX8, provided by Cheryl Arrowsmith)); 6His; host or cells: E. coli (BL21 CodonPlus RIL or Rosetta 2)
# T2 sequence (Q9HC52 11-69 limits assumed): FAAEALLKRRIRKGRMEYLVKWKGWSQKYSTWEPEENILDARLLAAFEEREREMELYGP
# Method: Percent covalent conjugation was determined by UV integration on LC/MS after overnight incubation at 10 µM compound and protein at 37 °C.
# 2.3 In Vitro CBX ChD Labeling with Covalent Inhibitors. 10 µM purified CBX ChD was incubated with imine covalent inhibitors (10 µM) in PBS buffer (pH 7) at 37 °C or R.T. Protein labeling samples were precipitated using MeOH and CHCl3 at the volume ratio of MeOH:CHCl3:sample=3:0.5:1, washed twice using cold MeOH, and air dried. Dried protein pellets were resuspended in aqueous buffer (0.1% formic acid, 300 mM ammonium acetate).
# Precipitated samples were analyzed on a C4 reversed-phase column (e.g., 2.1 × 150 mm, 3–5 µm particle size) using a linear gradient of solvent A (0.1% formic acid in water) and solvent B (0.1% formic acid in acetonitrile). Elution was monitored by UV absorbance at 215 nm, and mass spectra were acquired in positive ion mode to confirm the identities of unlabeled and labeled protein species.
# Labeling yield (%)=AlabeledAlabeled+Aunlabeled×100
# as §1, with “Samples were precipitated using MeOH and CHCl3 at the volume ratio of MeOH:CHCl3:sample=3:0.5:1, washed twice using cold MeOH, and air dried.” left out
# [1] = Stability of warheads and inhibitors (solid, PBS, hydrolysis); assay type: physicochemical; details: 24 h in aqueous buffer, then sodium cyanoborohydride, mass spectrometry
# Method: To be suitable for chemical probe and therapeutic applications, the warhead should show good stability. In general, we found the iminolactam warheads to be quite stable. Compound 1 was stable as a solid at room temperature for over 3 months. […] After 24‐h in aqueous buffer, compounds were treated with sodium cyanoborohydride. […] The synthetic strategy of in situ formation of imines by periodate treatment was pursued to avoid concerns of warhead reactivity with the ligand itself to either the peptide backbone or the phenoxyphenyl aryl group. This appears to have been unnecessary, at least for the iminolactam warhead. […] The more reactive ester imine may be forming semi‐stable cyclized products with the amide backbone, which have been observed previously with peptide aldehydes.^[ [51], [52] ^] Due to these issues, we selected compound P1b for further characterization.
# [2] = system: HOXA9 gene expression in THP1 cells; assay: qRT-PCR analysis of HOXA9 gene expression in THP1 cells; assay type: cell-based, Human; details: 10 µM, 48 h
# Method: Figure 7 Cellular activity of covalent, cyclic imine inhibitors to CBX8. a) qRT‐PCR analysis of HOXA9 gene expression in THP1 cells after 48 h of compound treatment at the indicated dose. N = 3. Error bars represent SD. Statistical significance was calculated using Student's t‐test. ** = p < 0.01, **** = p < 0.0001, b) qRT‐PCR analysis of HOXA9 gene expression in THP1 cells treated with increasing doses of compound for 48 h. N = 3. Error bars represent SD.
# Figure S24. Cellular activity of covalent, cyclic imine inhibitors to CBX8. qRT-PCR analysis of HOXA9 gene expression in THP1 cells after 48 h of compound treatment at the indicated dose. N = 3. Error bars represent s.d. Statistical significance determined by Student’s T test. * = p <0.05, ** = p < 0.01, *** = p < 0.001, **** = p < 0.0001.
# 2.4 Cell Culture Cell line, Media and Culture Conditions HEK293T cells were cultured in Dubecco’s Modified Essential Media (DMEM), 10% fetal bovine serum (FBS, JR Scientific), 1% glutagro (Corning), 1% penicillin/streptomycin (Corning), 1% sodium pyruvate (Corning). Human THP1 cells were cultured in RPMI (Gibco), 10% FBS (J R Scientific), 1% Sodium pyruvate (Invitrogen), 1% Pen/Strep (Invitrogen), 1% Glutamax (Thermo Scientific), 0.1% 2-mercaptoethanol.
# Cells were harvested after 48 h for RNA extraction. […] SYBR Green Mastermix (Thermo Scientific) was used for quantitative PCR. […]
smiles,measurement,setting,value
CC[C@H](C)[C@H](NC(=O)[C@@H](NC(=O)c1ccc(Oc2ccccc2)cc1)C1CCCC1)C(=O)N[C@@H](CCCCN(CC)CCCCCCN1CCN=CC1=O)C(=O)N[C@@H](CO)C(N)=O [P1b],labeling of CBX2 ChD,CBX2 ChD,no labeled protein was detected
same,% conj. to CBX8 at 37 °C Overnight 10 μM each,"CBX8 ChD; 10 µM compound and protein, 37 °C, overnight",~90%
same,effect of GSH on CBX8 ChD labeling yield,CBX8 ChD; presence of 10 mM GSH,no effect on yield
same,stability to long‐term incubation in PBS,[1],stability over the 24 h
same,reduction of HOXA9 gene expression (in words),[2],most effective at reducing HOXA9 gene expression
